Series [1] can be described thus: Proteolytic resistance to FasSSIF/Pancreatin. In kind it is in vitro ADME. Conditions: simulated intestinal fluid. Here is the method: A fresh suspension of FasSSIF/P (Fasted-State Simulated Intestinal Fluid+USP Pancreatin®) was prepared according to that described by Galia, Nicolaides, Hörter, Löbenberg, Reppas and Dressman: Pharm. Res. 15 (1998) 698-705, and USP XL requirements. The resulting preparation was used immediately without storage.
Peptide for evaluation (1.0 mg) was dissolved in pre-warmed FasSSIF without Pancreatin® (200 μL). To this fresh FasSSIF/Pancreatin® (100 μL) was added to initiate potential proteolysis. Following momentary vortexing of the reaction tube the mixture was incubated at 37° C. in a thermostatic water bath for the duration of the experiment. 25 μL aliquot of the co-incubated peptide-enzyme mixture was periodically withdrawn (t=0, 5, 10 15 and 30 min) and quenched immediately by addition to a solution of 10% TFA in 1:1 water/acetonitrile (75 μL) to arrest proteolytic activity. Quenched samples were centrifuged (7800 RPM, 3 mins) to pellet solids and 10 μL aliquots of the supernatant solution were analyzed using analytical RP-HPLC as follows: Analytical RP-HPLC method: Agilent Polaris C8-A column (4.6×100 mm, 3 micron) eluted with a linear binary gradient of 10-90% MeCN (0.1% TFA v/v) in water (0.1% TFA v/v) over either 10 or 15 mins at 1.5 mL min^−1 at 40° C. with detection by UV absorption at 210 nm. Manual integration (AUC) allowed estimation of remaining intact peptide over the time course of the experiment.

Series [2] addresses human GLP-1 receptor (hGLP-1R) (Homo sapiens, UniProt P43220). Kind of series: cAMP production (HTRF) in CHO cells expressing hGLP-1R. The note with it: for EC50: cAMP in CHO hGLP-1R cells, geometric mean, read-out: hGLP-1R EC50; for % Relative Potency Ratio: % GLP-1R activity relative to GLP-1 / % GlucR activity relative to glucagon. Further details: expressed in transfected cells. It is filed as cell-based. The procedure, abridged: (§1)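 Potency values represent EC50 from 4-parameter logistic curves of HTRF % Delta F signal. Receptor-expressing CHO cells (hGCGR 2×10^5 cells/mL, hGLP-1R 1×10^5 cells/mL) were exposed for 30 min at room temperature before two-step cAMP detection.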
On the technique in general: Cyclic AMP is a second messenger, typically raised through Gs and lowered through Gi signalling.

Series [3] addresses human glucagon receptor (hGCGR) (Homo sapiens, UniProt P47871). Kind of series: cAMP production (HTRF) in CHO cells expressing hGCGR. In kind it is cell-based. Further details: expressed in transfected cells. The note with it: cAMP in CHO hGCGR cells, geometric mean, read-out: hGluc-R EC50. The procedure, abridged: as §1
Series [4] in a line: Mouse acute food intake study. In kind it is in vivo. Conditions: male C57Bl/6 mice, s.c., dose 30 nmol/kg, cumulative food intake at 24 hr vs vehicle. The procedure, abridged: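 Single-housed male C57Bl/6 mice (8-9 weeks on arrival), chow-fed, acclimated and sham-dosed ≥2 times, were fasted 6-8 h, then given vehicle or peptide subcutaneously at 5 mL/kg 1-2 h before lights out. Food intake was recorded automatically over 48 h and analysed as cumulative intake.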

Where [5] appears, read: Table 6, peptides modified at position 17.
Setting [6] is: Table 7, peptides modified at position 20.

Where two headings read alike, the source gives them in different places. Starred links: 1 amine or outer side, 2 acyl side, 3 side chain; linkers in the order of their positions; H or OH if unused. Non-standard residues stand in square brackets, D forms with d. Residues, ends and D or L forms follow the SMILES beside them. Groups on a side chain read outwards from the residue. *: point of attachment. C20 diacid = O=C(O)CCCCCCCCCCCCCCCCCCC(=O)*; Dip = N[C@H](C(=O)O)C(c1ccccc1)c1ccccc1; γGlu = O=C(O)[C@H](CCC(=O)[*:2])N[*:1]; Stearoyl = CCCCCCCCCCCCCCCCCC(=O)*; αMeF = C[C@](N)(Cc1ccccc1)C(=O)O; Cha = N[C@@H](CC1CCCCC1)C(=O)O; PEG2 = NCCOCCOCCC(=O)O; AEEA = NCCOCCOCC(=O)O; Aib = CC(C)(N)C(=O)O

The source of these data is patent US20250353891A1 (MEDIMMUNE LIMITED, priority 2022, published 2025).

Chain of human glucagon receptor (hGCGR) (P47871 26-477): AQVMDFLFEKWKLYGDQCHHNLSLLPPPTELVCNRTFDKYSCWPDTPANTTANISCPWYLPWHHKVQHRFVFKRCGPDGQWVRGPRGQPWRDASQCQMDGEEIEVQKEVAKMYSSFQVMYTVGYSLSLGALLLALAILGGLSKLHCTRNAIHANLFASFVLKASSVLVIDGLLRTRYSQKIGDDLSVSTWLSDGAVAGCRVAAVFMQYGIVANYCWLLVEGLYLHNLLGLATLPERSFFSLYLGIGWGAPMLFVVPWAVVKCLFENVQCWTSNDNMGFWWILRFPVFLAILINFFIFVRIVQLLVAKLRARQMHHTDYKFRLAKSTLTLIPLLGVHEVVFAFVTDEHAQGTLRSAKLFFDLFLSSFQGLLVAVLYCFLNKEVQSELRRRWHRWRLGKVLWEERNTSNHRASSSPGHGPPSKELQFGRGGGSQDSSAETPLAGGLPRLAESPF
Chain of human GLP-1 receptor (hGLP-1R) (P43220 24-463): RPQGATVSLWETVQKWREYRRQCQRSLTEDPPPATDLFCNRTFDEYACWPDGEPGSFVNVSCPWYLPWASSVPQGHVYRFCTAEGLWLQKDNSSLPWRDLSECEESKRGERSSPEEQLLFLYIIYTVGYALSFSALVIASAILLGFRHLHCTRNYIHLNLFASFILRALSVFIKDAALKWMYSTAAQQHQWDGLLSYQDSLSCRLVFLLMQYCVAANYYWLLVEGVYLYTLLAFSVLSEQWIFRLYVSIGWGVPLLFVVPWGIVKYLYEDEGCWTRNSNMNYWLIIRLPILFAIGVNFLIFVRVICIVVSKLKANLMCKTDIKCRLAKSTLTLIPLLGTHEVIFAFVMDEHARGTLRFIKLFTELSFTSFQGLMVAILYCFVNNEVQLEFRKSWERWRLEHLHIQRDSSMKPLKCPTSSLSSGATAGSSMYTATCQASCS

In the case of `CCCCCCCCCCCCCCCCCC(=O)N[C@@H](CCC(=O)N[C@@H](CCC(=O)NCCOCCOCCC(=O)NCCOCCOCCC(=O)NCCCC[C@H](NC(=O)[C@H](CO)NC(=O)[C@H](CC(=O)O)NC(=O)[C@H](CC(C)C)NC(=O)[C@@H](NC(=O)[C@H](CCCCN)NC(=O)[C@H](CO)NC(=O)[C@@H](NC(=O)[C@H](CC(=O)O)NC(=O)[C@H](CO)NC(=O)[C@@H](NC(=O)[C@](C)(Cc1ccccc1)NC(=O)[C@H](CO)NC(=O)CNC(=O)[C@H](CCC(N)=O)NC(=O)[C@H](CO)NC(=O)[C@@H](N)Cc1c[nH]cn1)[C@@H](C)O)C(C)C)C(c1ccccc1)c1ccccc1)C(=O)N[C@@H](C)C(=O)N[C@@H](C)C(=O)N[C@@H](CCC(N)=O)C(=O)N[C@@H](CC(=O)O)C(=O)N[C@@](C)(Cc1ccccc1)C(=O)N[C@H](C(=O)N[C@@H](CCC(=O)O)C(=O)NC(C)(C)C(=O)N[C@@H](CC(C)C)C(=O)N[C@H](C(=O)N[C@@H](CO)C(=O)NCC(N)=O)[C@@H](C)CC)C(C)C)C(=O)O)C(=O)O` [Peptide 48] (H-HSQGS[αMeF]TSDVSK[Dip]LDSK([PEG2-PEG2-γGlu-γGlu-Stearoyl])AAQD[αMeF]VE[Aib]LISG-NH2; N-terminus assumed), in series [1], the fraction remaining – broadly, the share of the starting amount still present when the sample was taken – at 0.5 h, 3.3 mg/mL was 94%. In addition, the EC50 (usually the concentration needed to bring the measured effect to its halfway point) in series [2] (setting [5]) was found to be 0.0199 nM; in series [3] (setting [5]), 0.0432 nM. Further, the “% Relative Potency Ratio” value in series [2] (Table 6) was found to be 4.3.

In series [1], `CCCCCCCCCCCCCCCCCC(=O)N[C@@H](CCC(=O)N[C@@H](CCC(=O)NCCOCCOCCC(=O)NCCOCCOCCC(=O)NCCCC[C@H](NC(=O)[C@H](CO)NC(=O)[C@H](CC(=O)O)NC(=O)[C@H](CC(C)C)NC(=O)[C@@H](NC(=O)[C@H](CCCCN)NC(=O)[C@H](CO)NC(=O)[C@@H](NC(=O)[C@H](CC(=O)O)NC(=O)[C@H](CO)NC(=O)[C@@H](NC(=O)[C@](C)(Cc1ccccc1)NC(=O)[C@H](CO)NC(=O)CNC(=O)[C@H](CCC(N)=O)NC(=O)[C@H](CO)NC(=O)[C@@H](N)Cc1c[nH]cn1)[C@@H](C)O)C(C)C)C(c1ccccc1)c1ccccc1)C(=O)N[C@@H](C)C(=O)N[C@@H](C)C(=O)N[C@@H](CCC(N)=O)C(=O)N[C@@H](CC(=O)O)C(=O)N[C@@](C)(Cc1ccccc1)C(=O)N[C@H](C(=O)N[C@@H](CCC(=O)O)C(=O)NC(C)(C)C(=O)N[C@@H](CC1CCCCC1)C(=O)N[C@@H](C)C(=O)N[C@@H](CC(N)=O)C(=O)N[C@H](C(N)=O)[C@@H](C)O)C(C)C)C(=O)O)C(=O)O` [Peptide 52] (H-HSQGS[αMeF]TSDVSK[Dip]LDSK([PEG2-PEG2-γGlu-γGlu-Stearoyl])AAQD[αMeF]VE[Aib][Cha]ANT-NH2; N-terminus assumed) had a fraction remaining at 0.5 h, 3.3 mg/mL of 90%. Besides, the values for the EC50 in series [2] (setting [5]) and in series [3] (setting [5]) were 0.0227 nM and 0.00665 nM, respectively. Further, the “% Relative Potency Ratio” value in series [2] (Table 6) came to 0.6.

As to `CCCCCCCCCCCCCCCCCC(=O)N[C@@H](CCC(=O)N[C@@H](CCC(=O)NCCOCCOCCC(=O)NCCOCCOCCC(=O)NCCCC[C@H](NC(=O)[C@H](CO)NC(=O)[C@H](CC(=O)O)NC(=O)[C@H](CC(C)C)NC(=O)[C@@H](NC(=O)[C@H](CCCCN)NC(=O)[C@H](CO)NC(=O)[C@@H](NC(=O)[C@H](CC(=O)O)NC(=O)[C@H](CO)NC(=O)[C@@H](NC(=O)[C@](C)(Cc1ccccc1)NC(=O)[C@H](CO)NC(=O)CNC(=O)[C@H](CCC(N)=O)NC(=O)[C@H](CO)NC(=O)[C@@H](N)Cc1c[nH]cn1)[C@@H](C)O)C(C)C)C(c1ccccc1)c1ccccc1)C(=O)N[C@@H](C)C(=O)N[C@@H](C)C(=O)N[C@@H](CCC(N)=O)C(=O)N[C@@H](CC(=O)O)C(=O)N[C@@](C)(Cc1ccccc1)C(=O)N[C@H](C(=O)N[C@@H](CCC(=O)O)C(=O)NC(C)(C)C(=O)N[C@H](C(=O)N[C@H](C(=O)N[C@@H](CCC(=O)O)C(=O)NCC(=O)NCC(N)=O)C(C)C)C(C)C)C(C)C)C(=O)O)C(=O)O` [Peptide 53] (H-HSQGS[αMeF]TSDVSK[Dip]LDSK([PEG2-PEG2-γGlu-γGlu-Stearoyl])AAQD[αMeF]VE[Aib]VVEGG-NH2), the fraction remaining at 0.5 h, 3.3 mg/mL in series [1] was 92%. Moreover, the EC50 in series [2] (setting [5]) is 0.00303 nM; in series [3] (setting [5]), 0.0189 nM. Further, the “% Relative Potency Ratio” value in series [2] (Table 6) is given as 12.3.

`CCCCCCCCCCCCCCCCCC(=O)N[C@@H](CCC(=O)N[C@@H](CCC(=O)NCCOCCOCCC(=O)NCCOCCOCCC(=O)NCCCC[C@H](NC(=O)[C@H](CO)NC(=O)[C@H](CC(=O)O)NC(=O)[C@H](CC(C)C)NC(=O)[C@@H](NC(=O)[C@H](CCCCN)NC(=O)[C@H](CO)NC(=O)[C@@H](NC(=O)[C@H](CC(=O)O)NC(=O)[C@H](CO)NC(=O)[C@@H](NC(=O)[C@](C)(Cc1ccccc1)NC(=O)[C@H](CO)NC(=O)CNC(=O)[C@H](CCC(N)=O)NC(=O)[C@H](CO)NC(=O)[C@@H](N)Cc1c[nH]cn1)[C@@H](C)O)C(C)C)[C@@H](C)CC)C(=O)N[C@@H](C)C(=O)N[C@@H](C)C(=O)N[C@@H](CCC(N)=O)C(=O)N[C@@H](CC(=O)O)C(=O)N[C@@](C)(Cc1ccccc1)C(=O)N[C@H](C(=O)N[C@@H](CCC(N)=O)C(=O)NC(C)(C)C(=O)N[C@H](C(=O)N[C@H](C(=O)N[C@@H](CC(N)=O)C(=O)N[C@H](C(N)=O)[C@@H](C)O)[C@@H](C)CC)[C@@H](C)CC)C(C)C)C(=O)O)C(=O)O` [Peptide 117] (H-HSQGS[αMeF]TSDVSKILDSK([PEG2-PEG2-γGlu-γGlu-Stearoyl])AAQD[αMeF]VQ[Aib]IINT-NH2; N-terminus assumed): in series [1], the amount remaining at 5 min, 3.3 mg/mL is 54%; the share remaining at 10 min, 3.3 mg/mL was 35%; the fraction remaining at 0.25 h, 3.3 mg/mL was 22%; the amount remaining at 0.5 h, 3.3 mg/mL is 8%. Further, in series [2] (setting [5]), the EC50 came out at 0.0014 nM. Also, the “% Relative Potency Ratio” value in series [2] (Table 6) turned out to be 2.6. Besides, the EC50 in series [3] (setting [5]) turned out to be 0.00185 nM.

As for `CC[C@H](C)[C@H](NC(=O)C(C)(C)NC(=O)[C@H](C)NC(=O)[C@@H](NC(=O)[C@](C)(Cc1ccccc1)NC(=O)[C@H](CC(=O)O)NC(=O)[C@H](CCCCNC(=O)COCCOCCNC(=O)COCCOCCNC(=O)CC[C@H](NC(=O)CC[C@H](NC(=O)CCCCCCCCCCCCCCCCCCC(=O)O)C(=O)O)C(=O)O)NC(=O)[C@H](C)NC(=O)[C@H](C)NC(=O)[C@H](CCCNC(=N)N)NC(=O)[C@H](CO)NC(=O)[C@H](CC(=O)O)NC(=O)[C@H](CC(C)C)NC(=O)[C@](C)(Cc1ccccc1)NC(=O)[C@H](CCCCN)NC(=O)[C@H](CO)NC(=O)[C@@H](NC(=O)[C@H](CC(=O)O)NC(=O)[C@H](CO)NC(=O)[C@@H](NC(=O)[C@](C)(Cc1ccccc1)NC(=O)[C@H](CO)NC(=O)CNC(=O)[C@H](Cc1c[nH]cn1)NC(=O)C(C)(C)NC(=O)[C@@H](N)Cc1c[nH]cn1)[C@@H](C)O)C(C)C)[C@@H](C)CC)C(=O)N[C@@H](C)C(=O)N[C@@H](CCC(=O)O)C(=O)N[C@H](C(N)=O)[C@@H](C)O` [Peptide 302] (H-H[Aib]HGS[αMeF]TSDVSK[αMeF]LDSRAAK([AEEA-AEEA-γGlu-γGlu-C20 diacid])D[αMeF]IA[Aib]IAET-NH2), the “24 hr % Vehicle Food Intake” value in series [4] was 46.4%. Also, the EC50 came out at 0.151 nM in series [2] (setting [6]) and 0.271 nM in series [3] (setting [6]). Besides, the “% Relative Potency Ratio” value in series [2] (Table 7) is 3.5.
